Measured values as given in patent US10882865B2, “Pyrrolopyrimidine compounds and uses thereof for modulating glucocerebrosidase activity” (Northwestern University, priority 2018, dated 2021).

Target: T1, glucocerebrosidase (GCase) (Homo sapiens, UniProt P04062)
T1 sequence (P04062 40-536): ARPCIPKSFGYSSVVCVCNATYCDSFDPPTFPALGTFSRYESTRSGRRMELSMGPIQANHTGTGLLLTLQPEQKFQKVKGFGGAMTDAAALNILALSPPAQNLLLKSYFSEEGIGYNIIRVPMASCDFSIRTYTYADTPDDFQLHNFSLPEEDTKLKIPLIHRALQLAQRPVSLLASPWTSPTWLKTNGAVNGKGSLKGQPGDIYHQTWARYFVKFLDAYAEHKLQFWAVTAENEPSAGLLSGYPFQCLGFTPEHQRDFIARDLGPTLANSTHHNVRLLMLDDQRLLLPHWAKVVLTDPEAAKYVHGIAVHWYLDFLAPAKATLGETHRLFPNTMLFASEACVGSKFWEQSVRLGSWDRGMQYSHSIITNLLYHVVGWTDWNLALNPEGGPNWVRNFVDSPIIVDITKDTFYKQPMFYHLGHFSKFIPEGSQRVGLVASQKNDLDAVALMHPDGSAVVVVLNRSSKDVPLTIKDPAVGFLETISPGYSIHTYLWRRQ
Assay: Glucocerebrosidase activation (Table 1, Exemplary Compounds and Activities)
Type: biochemical
Conditions: activation of glucocerebrosidase; for Emax: read-out: Maximum Activation (Emax)
Description: The compounds disclosed herein preferably modulate activity of glucocerebrosidase. Modulation may include inhibiting or decreasing glucocerebrosidase activity. Modulation also may include activating or increasing glucocerebrosidase activity. Glucocerebrosidase activity may be assessed utilizing methods known in the art and the methods disclosed herein, including the methods disclosed in the Examples provided herein. In some embodiments, the compounds decrease or increase glucocerebrosidase activity relative to a control (e.g., by at least about 10%, 20%, 30%, 40%, 50%, 60%, 70%, 80%, 90%, 100%, 200%, 300%, 400%, 500%, 600%, 700%, 800%, 900%, 1000% or more (or within a range bounded by any of these values)). In other embodiments, the compounds activate glucocerebrosidase greater than about 2-fold, 3-fold, 4-fold, 5-fold, 10-fold, 20-fold, 30-fold, 40-fold, 50-fold, 60-fold, 70-fold, 80-fold, 90-fold, or 100-fold, relative to a control. […] In other embodiments, an AC50 value for the compound in regard to activation of glucocerebrosidase may be determined and preferably the compound has an AC50 value of less than about 10 μM, 5 μM, or 1 μM, 0.5 μM, 0.1 μM, 0.05 μM, 0.01 μM, 0.005 μM, or 0.001 μM (or within a range bounded by any of these values).
Methods for measuring glucocerebrosidase activity are known in the art. (See, e.g., U.S. Publication No. 2017/0001976 and U.S. Publication No. 2017/0002013 and Zheng et al. “Design and Synthesis of Potent Quinazolines as Selective β-Glucocerebrosidase Modulators, J. Med. Chem. 2016 September 22; 59(18): 8508-8520; the contents of which are incorporated herein by reference in their entireties).
The disclosed pyrrolopyrimidine compounds were synthesized and tested using the methods described below. Additional methods for synthesizing and testing pyrrolopyrimidine compounds are described in the art. (See, e.g., Zheng et al., β-Glucocerebrosidase Modulators Promote Dimerization of β-Glucocerebrosidase and Reveal an Allosteric Binding Site, J. Am. Chem. Soc., 2018, 140 (18), pp 5914-5924; and U.S. Pat. No. 9,802,942; the contents of which are incorporated herein by reference in their entireties).

Row | SMILES | AC50 | Emax
1 | Cc1cc(C)n2ccc(C(=O)Nc3cccc(C(C)C)c3)c2n1 [compound 9] | 2.23 µM | 280%
2 | Cc1cc(C)n2ccc(C(=O)Nc3ccc(-c4cn(CCOCCOCCO)nn4)c(CC(=O)O)c3)c2n1 [compound 41] | 28.2 µM | –
3 | CCOC(=O)Cc1cc(NC(=O)c2ccn3c(C)cc(C)nc23)ccc1CCCOCCOCCOCCOCCNC(=O)C1CCCCC1 [compound 48] | 3.16 µM | 796%
4 | Cc1cc(C)n2ccc(C(=O)Nc3cccc(CC(=O)ON4C(=O)CCC4=O)c3)c2n1 [compound 3, 2,5-dioxopyrrolidin-1-yl 2-(3-(2,4-dimethylpyrrolo[1,2-a]pyrimidine-8-carboxamido)phenyl)acetate] | 9.09 µM | 500%
5 | Cc1cc(C)n2ccc(C(=O)Nc3cccc(CC(=O)Oc4ccccc4)c3)c2n1 [compound 50] | 4.47 µM | 230%
6 | Cc1cc(C)n2ccc(C(=O)Nc3cccc(NC(=O)CCl)c3)c2n1 [compound 8] | 3.43 µM | 480%
7 | Cc1cc(C)n2ccc(C(=O)Nc3cccc(CC(=O)Oc4ccc([N+](=O)[O-])cc4)c3)c2n1 [compound 51] | 10 µM | 172%
8 | Cc1cc(C)n2ccc(C(=O)Nc3ccc(CC(=O)O)cc3)c2n1 [compound 22] | 35.5 µM | 429%
9 | Cc1cc(C)n2ccc(C(=O)Nc3ccc4c(c3)COC4)c2n1 [compound 25] | 7.94 µM | 456%
10 | COC(=O)CCc1cccc(NC(=O)c2ccn3c(C)cc(C)nc23)c1 [compound 34] | 3.55 µM | 578%
11 | COC(=O)CCc1ccc(NC(=O)c2ccn3c(C)cc(C)nc23)cc1 [compound 13] | 0.63 µM | 180%
12 | Cc1cc(C)n2ccc(C(=O)Nc3ccc4c(c3)C(=O)CCC4)c2n1 [compound 17] | 3.88 µM | 750%
13 | Cc1cc(C)n2ccc(C(=O)Nc3ccc(CC(=O)ON4C(=O)CCC4=O)cc3)c2n1 [compound 29] | 4.47 µM | 374%
14 | Cc1cc(C)n2ccc(C(=O)Nc3nc4c(s3)CC(C)(C)CC4)c2n1 [compound 46] | 1.12 µM | 230%
15 | CCOC(=O)c1cccc(NC(=O)c2ccn3c(C)cc(C)nc23)c1 [compound 4] | 1.18 µM | 400%
16 | CCOC(=O)c1ccc(NC(=O)c2ccn3c(C)cc(C)nc23)cc1 [compound 19] | 0.71 µM | 250%
17 | Cc1cc(C)n2ccc(C(=O)NCC3COc4ccccc4O3)c2n1 (stereo not shown) [compound 23] | 28.2 µM | 644%
18 | Cc1cc(C)n2ccc(C(=O)NCc3ccccc3CNC(=O)c3ccn4c(C)cc(C)nc34)c2n1 [compound 42] | 5 µM | 715%
19 | Cc1cc(C)n2ccc(C(=O)Nc3ccc(CCC(=O)ON4C(=O)CCC4=O)cc3)c2n1 [compound 27] | 2.82 µM | 620%
20 | COC(=O)Cc1cc(NC(=O)c2ccn3c(C)cc(C)nc23)ccc1-c1cn(CCOCCOCCO)nn1 [compound 39] | 10 µM | –
21 | Cc1cc(C)n2ccc(C(=O)Nc3nc4c(s3)CC(C)CC4)c2n1 (stereo not shown) [compound 45] | 1.78 µM | 325%
22 | Cc1cc(C)n2ccc(C(=O)Nc3cccc(C(=O)O)c3)c2n1 [compound 5] | 2.87 µM | 175%
23 | COC(=O)Cc1cccc(NC(=O)c2ccn3c(C)cc(C)nc23)c1 [compound 1] | 6.59 µM | 450%
24 | Cc1cc(C)n2ccc(C(=O)Nc3c(C)nn(Cc4ccccc4)c3C)c2n1 [compound 33] | 39.8 µM | 914%

Row | SMILES | AC50 | Emax
25 | Cc1cc(C)n2ccc(C(=O)Nc3cccc(CC(=O)O)c3)c2n1 [compound 2] | 30 µM | 550%
26 | Cc1cc(C)n2ccc(C(=O)Nc3cccc(C(=O)ON4C(=O)CCC4=O)c3)c2n1 [compound 6] | 4.59 µM | 460%
27 | Cc1cc(C)n2ccc(C(=O)Nc3ccc4c(c3)C(=O)CC4)c2n1 [compound 16] | 1.49 µM | 225%
28 | Cc1cc(C)n2ccc(C(=O)Nc3cccc(N)c3)c2n1 [compound 7] | 3.39 µM | 210%
29 | Cc1cc(C)n2ccc(C(=O)Nc3cccc4c3CCC4)c2n1 [compound 10] | 0.77 µM | 202%
30 | COC(=O)Cc1cc(NC(=O)c2ccn3c(C)cc(-c4cccnc4)nc23)ccc1-c1cn(CCOCCOCCO)nn1 [compound 40] | 4.47 µM | –
31 | Cc1cc(C)n2ccc(C(=O)Nc3cccc(Oc4ccccc4)c3)c2n1 [compound 36] | 1.42 µM | 280%
32 | Cc1cc(C)n2ccc(C(=O)Nc3cccc4c3CCCC4)c2n1 [compound 11] | 1.41 µM | 400%
33 | Cc1cc(C)n2ccc(C(=O)Nc3ccc4c(c3)CCC4)c2n1 [compound 26] | 1.12 µM | 290%
34 | C=CC(=O)Nc1cccc(NC(=O)c2ccn3c(C)cc(C)nc23)c1 [compound 14] | 6.46 µM | –
35 | Cc1cc(C)n2ccc(C(=O)Nc3ccc4c(c3)CCO4)c2n1 [compound 30] | 1.12 µM | 198%
36 | Cc1cc(C)n2ccc(C(=O)Nc3cccc(-c4ccccc4)c3)c2n1 [compound 43] | 1.41 µM | 296%
37 | Cc1cc(C)n2ccc(C(=O)Nc3ccc(C(=O)O)cc3)c2n1 [compound 21] | 35.5 µM | 622%
38 | Cc1cc(C)n2ccc(C(=O)Nc3ccc(CCCOCCOCCOCCOCCNC(=O)C4CCCCC4)c(CC(=O)ON4C(=O)CCC4=O)c3)c2n1 [compound 49] | 3.55 µM | –
39 | Cc1cc(C)n2ccc(C(=O)Nc3ccc(C(=O)ON4C(=O)CCC4=O)cc3)c2n1 [compound 28] | 50 µM | 115%
40 | Cc1cc(C)n2ccc(C(=O)Nc3cccc(CCC(=O)O)c3)c2n1 [compound 37] | 8.91 µM | 427%
41 | Cc1cc(C)n2ccc(C(=O)Nc3ccc4c(c3)CCCC4=O)c2n1 [compound 31] | 1 µM | 355%
42 | Cc1cc(C)n2ccc(C(=O)Nc3ccc4c(c3)CCCC4)c2n1 [compound 24] | 3.55 µM | 527%
43 | Cc1cc(C)n2ccc(C(=O)Nc3ccccc3Oc3ccccc3)c2n1 [compound 35] | 2.24 µM | 298%
44 | Cc1cc(C)n2ccc(C(=O)Nc3cccc(CC(C)C)c3)c2n1 [compound 12] | 3.44 µM | 300%
45 | Cc1cc(C)n2ccc(C(=O)Nc3nc4c(s3)CCCC4)c2n1 [compound 44] | 1.58 µM | 342%
46 | Cc1cc(C)n2ccc(C(=O)Nc3ccc(CCC(=O)O)cc3)c2n1 [compound 15] | 36.6 µM | 700%
47 | Cc1cc(C)n2ccc(C(=O)Nc3cccc(CCC(=O)ON4C(=O)CCC4=O)c3)c2n1 [compound 38] | 4.47 µM | 810%
48 | CCOC(=O)Cc1ccc(NC(=O)c2ccn3c(C)cc(C)nc23)cc1 [compound 20] | 6.1 µM | 550%
